Test results published in paper PMC8903829 (eLife, 2022).
Values joined by “and” are separate entries in the source; they are usually repeats but may differ in a detail not shown here. Equal values may be shown once.

System: fast spiking interneurons
Experiment: Current-clamp recording in brain slices, action-potential firing
Assay type: cell-based, mouse
Conditions: for Fast spiking interneurons APs/1s: 0.25 μM, individual neurons; for Cumulative number of action potentials fired by each cell on increasing current injections: 250 nM, fast spiking interneurons
Method: Parasagittal cortical brain slices were prepared from> P21 mice using standard procedures (adapted from Tai et al., PNAS 2014). Briefly, the mouse was deeply anaesthetized with isoflurane and decapitated. The brain was removed and placed into chilled artificial cerebrospinal fluid (aCSF) solution containing (in mM): 125 NaCl, 25 NaHCO3, 2.5 KCl, 1.25 NaH2PO4, 2 CaCl2, 2 MgCl2, 10 d-glucose, pH 7.3, osmolarity adjusted to ~306 mOsm using sucrose. All solutions were saturated with 95% O2 and 5% CO2 constantly perfused with 95% O2/5% CO2. Slices with a thickness of 400 µm were prepared using a vibratome (Ted Pella, Inc). Following sectioning, the slices were placed in a holding chamber and incubated in a water bath at 34 °C for 15 min. The brain slices were removed from the water bath and held at room temperature for 60 min prior to recording.
All experiments involving rodent subjects were performed in accordance with the guidelines of the Canadian Council on Animal Care (CCAC). Following a 60-min incubation at room temperature, a brain slice was selected and placed on the stage of an upright microscope (SliceScope Pro 2000, Scientifica). The slice was constantly perfused with room temperature aCSF, containing 0.1% DMSO as a vehicle control, and oxygenated with 95% O2/5% CO2.The slice was visualized using brightfield microscopy, and a healthy neuron was selected from neocortical layer 5. […] Stimulation was applied in current-clamp mode, and consisted of a series of 1000ms square pulses, beginning at –20 pA and increasing by +20 pA increments (3000ms between pulses).
The slice was incubated in circulating compound for 10 min before repeating the series of square pulse stimulations. Working stock solutions were prepared in DMSO at a concentration of 20 mM.
All data analysis was done offline using ClampFit 10.7 (Molecular Devices). Data are presented as a mean ± SEM. For each sweep, the number of evoked APs was counted, and plotted as a function of current injection (beginning with –20 pA). […] Statistical significance was assessed using paired, two-way, student’s t-test applied at each current injection level with significance considered p < 0.05.

Compound: Cc1cc(S(=O)(=O)Nc2cscn2)c(F)cc1N(C)[C@H]1CCN(Cc2ccccc2)C1 [NBI-921352]
- Fast spiking interneurons APs/1s (current injected 0 pA): 0 APs/1s
- Fast spiking interneurons APs/1s (current injected 20 pA): 0 APs/1s
- Fast spiking interneurons APs/1s (current injected 40 pA): 0 APs/1s
- Fast spiking interneurons APs/1s (current injected 60 pA, row): 0 APs/1s (2×) and 17 APs/1s
- Fast spiking interneurons APs/1s (current injected 80 pA, row): 0 APs/1s and 1 APs/1s and 25 APs/1s
- Fast spiking interneurons APs/1s (current injected 100 pA, row): 20 APs/1s and 25 APs/1s and 33 APs/1s
- Fast spiking interneurons APs/1s (current injected 120 pA, row): 28 APs/1s and 33 APs/1s and 39 APs/1s
- Fast spiking interneurons APs/1s (current injected 140 pA, row): 34 APs/1s and 40 APs/1s and 45 APs/1s
- Fast spiking interneurons APs/1s (current injected 160 pA, row): 38 APs/1s and 46 APs/1s and 52 APs/1s
- Fast spiking interneurons APs/1s (current injected 180 pA, row): 43 APs/1s and 50 APs/1s and 57 APs/1s
- Fast spiking interneurons APs/1s (current injected 200 pA, row): 47 APs/1s and 55 APs/1s and 62 APs/1s
- Fast spiking interneurons APs/1s (current injected 220 pA, row): 51 APs/1s and 58 APs/1s and 67 APs/1s
- Fast spiking interneurons APs/1s (current injected 240 pA, row): 55 APs/1s and 62 APs/1s and 73 APs/1s
- Fast spiking interneurons APs/1s (current injected 260 pA, row): 58 APs/1s and 65 APs/1s and 77 APs/1s
- Fast spiking interneurons APs/1s (current injected 280 pA, row): 61 APs/1s and 70 APs/1s and 82 APs/1s
- Fast spiking interneurons APs/1s (current injected 300 pA, row): 65 APs/1s and 73 APs/1s and 86 APs/1s
- Fast spiking interneurons APs/1s (current injected 320 pA, row): 68 APs/1s and 76 APs/1s and 89 APs/1s
- Fast spiking interneurons APs/1s (current injected 340 pA, row): 70 APs/1s and 80 APs/1s and 96 APs/1s
- Fast spiking interneurons APs/1s (current injected 360 pA, row): 73 APs/1s and 83 APs/1s and 100 APs/1s
- Fast spiking interneurons APs/1s (current injected 380 pA, row): 74 APs/1s and 83 APs/1s and 100 APs/1s
- Fast spiking interneurons APs/1s (current injected 400 pA, row): 75 APs/1s and 86 APs/1s and 103 APs/1s
- Fast spiking interneurons APs/1s (current injected 420 pA, row): 77 APs/1s and 87 APs/1s and 101 APs/1s
- Fast spiking interneurons APs/1s (current injected 440 pA, row): 77 APs/1s and 88 APs/1s and 103 APs/1s
- Fast spiking interneurons APs/1s (current injected -20 pA): 0 APs/1s
- Cumulative number of action potentials fired by each cell on increasing current injections (up to current injected 0 pA): 0
- Cumulative number of action potentials fired by each cell on increasing current injections (up to current injected 20 pA): 0
- Cumulative number of action potentials fired by each cell on increasing current injections (up to current injected 40 pA): 0
- Cumulative number of action potentials fired by each cell on increasing current injections (up to current injected 140 pA, listed as NBI-921252): 82 and 99 and 159
- Cumulative number of action potentials fired by each cell on increasing current injections (up to current injected 160 pA, listed as NBI-921252): 120 and 145 and 211
- Cumulative number of action potentials fired by each cell on increasing current injections (up to current injected 180 pA, listed as NBI-921252): 163 and 195 and 268
- Cumulative number of action potentials fired by each cell on increasing current injections (up to current injected 200 pA, listed as NBI-921252): 210 and 250 and 330
- Cumulative number of action potentials fired by each cell on increasing current injections (up to current injected 220 pA, listed as NBI-921252): 261 and 308 and 397
- Cumulative number of action potentials fired by each cell on increasing current injections (up to current injected 240 pA, listed as NBI-921252): 316 and 370 and 470
- Cumulative number of action potentials fired by each cell on increasing current injections (up to current injected 260 pA, listed as NBI-921252): 374 and 435 and 547
- Cumulative number of action potentials fired by each cell on increasing current injections (up to current injected 280 pA, listed as NBI-921252): 435 and 505 and 629
- Cumulative number of action potentials fired by each cell on increasing current injections (up to current injected 300 pA, listed as NBI-921252): 500 and 578 and 715
- Cumulative number of action potentials fired by each cell on increasing current injections (up to current injected 320 pA, listed as NBI-921252): 568 and 654 and 804
- Cumulative number of action potentials fired by each cell on increasing current injections (up to current injected 340 pA, listed as NBI-921252): 638 and 734 and 900
- Cumulative number of action potentials fired by each cell on increasing current injections (up to current injected 360 pA, listed as NBI-921252): 711 and 817 and 1000
- Cumulative number of action potentials fired by each cell on increasing current injections (up to current injected 380 pA, listed as NBI-921252): 785 and 900 and 1100
- Cumulative number of action potentials fired by each cell on increasing current injections (up to current injected 400 pA, listed as NBI-921252): 860 and 986 and 1203
- Cumulative number of action potentials fired by each cell on increasing current injections (up to current injected 420 pA, listed as NBI-921252): 937 and 1073 and 1304
- Cumulative number of action potentials fired by each cell on increasing current injections (up to current injected 440 pA, listed as NBI-921252): 1014 and 1161 and 1407
- Cumulative number of action potentials fired by each cell on increasing current injections (up to current injected -20 pA): 0
